Reference: ChEMBL document CHEMBL4706735, “Novel Pyrazolo[3,4-b]pyrazines as SHP2 Inhibitors for Treating Cancer” (ACS Med Chem Lett, 2021)

Assay: Inhibition of ERK phosphorylation in human HCC827 cells incubated for 30 mins in serum free medium measured by sandwich ELISA
Type: cell-based
Conditions: HCC827, 0.5 h
Work on C[C@@H]1OCC2(CCN(c3nc4[nH]nc(-c5cccc(Cl)c5F)c4nc3CO)CC2)[C@@H]1N yielded an IC50 of 5.6 nM.
Molecule C[C@@H]1OCC2(CCN(c3nc4[nH]nc(-c5ccc6nn(C)c(Cl)c6c5Cl)c4nc3CO)CC2)[C@@H]1N has an IC50 of 3.6 nM.
Molecule COc1cnc2ccc(-c3n[nH]c4nc(N5CCC6(CC5)CO[C@@H](C)[C@H]6N)c(CO)nc34)c(Cl)c2n1 has an IC50 of 8.4 nM.
With Cn1nc2ccc(-c3n[nH]c4nc(N5CCC6(CC5)CC(F)(F)C[C@H]6N)c(CO)nc34)c(Cl)c2c1Cl the IC50 was 6.2 nM.
Work on Cn1nc2ccc(-c3n[nH]c4nc(N5CCC6(CC5)C[C@H](F)C[C@H]6N)c(CO)nc34)c(Cl)c2c1Cl yielded an IC50 of 4.1 nM.
Molecule Cn1cc2c(Cl)c(-c3n[nH]c4nc(N5CCC6(CC5)CC(F)(F)C[C@H]6N)c(CO)nc34)ccc2n1 has an IC50 of 6.3 nM.
